Patent publication US11939340B2, “CDK inhibitors and their use as pharmaceuticals” (Prelude Therapeutics Incorporated, priority 2022, dated 2024)

Columns and labels:
CDK2/Cyclin E2 = CDK2/Cyclin E2 (Homo sapiens, UniProt P24941); experiment: CDK2/CyclinE2 Enzymatic Activity Assay (TR-FRET); type: biochemical; settings: CDK2/CyclinE2 1 nM, ATP 1 mM, read-out: CDK2_El IC50
Protocol: CDK2/CyclinE2 Enzymatic Activity Assay
The inhibitory activity of compounds was evaluated in vitro using TR-FRET assay with white 384-well low volume microplate (Greiner Bio-One). CDK2/Cyclin E2 catalyzed phosphorylation of peptide in the presence and absence of compounds was measured and used in IC50 determination. Recombinant protein complex CDK2/Cyclin E2, expressed from insect cell, was purchased from ProQinase. Testing compounds were dissolved in DMSO at 1 mM and tested in 9-dose IC50 mode. The reaction mixture was prepared by mixing CDK2/CyclinE2 (1 nM final), ULight-4E-BP1 (50 nM final, Perkinelmer, TRF0128-D), and ATP (1 mM final) in assay buffer (20 mM of HEPES pH 7.4, 1 mM of EGTA, 0.05% BSA, 0.005% Tween 20, and 1 mM TCEP). The compound of interest in DMSO was added to each well in 3-fold serial dilution by dispenser (TECAN D300E) to make a 9.9 μL of reaction mixture. After 20 minutes preincubation at room temperature, 0.1 μL MgCl2 (10 mM final) was added to initiate the reaction. Following a 45 minute incubation at 37° C., the reaction was stopped by addition of 2 μL of quenching buffer consisting of Lance detection buffer (Perkinelmer CR97-100C), LANCE Ultra Europium-anti-P-4E-BP1 (Perkinelmer, TRF0216-D), EDTA, and incubate at room temperature for additional 60 minutes in the dark. The reaction signal was measured by Envision multimode plate reader (PerkinElmer, 2102-0010). IC50 values were determined by fitting the data to the standard 4 parameters with Hill Slope using GraphPad Prism software.

CDK4/Cyclin D1 = target: T1, CDK4/Cyclin D1 (Homo sapiens, UniProt P11802); experiment: CDK4/CyclinD1 Enzymatic Activity Assay (TR-FRET); type: biochemical; settings: CDK4/CyclinD1 1 nM, ATP 2 mM, read-out: CDK4_D1 IC50
T1 construct: purchased ProQinase; host or cells: insect cell
Protocol: CDK4/CyclinD1 Enzymatic Activity Assay
The inhibitory activity of compounds was evaluated in vitro using TR-FRET assay with white 384-well low volume microplate (Greiner Bio-One). CDK4/Cyclin D1 catalyzed phosphorylation of peptide in the presence and absence of compounds was measured and used in IC50 determination. Recombinant protein complex CDK4/Cyclin D1, expressed from insect cell, was purchased from ProQinase. Testing compounds were dissolved in DMSO at 1 mM and tested in 9-dose IC50 mode. The reaction mixture was prepared by mixing CDK4/CyclinD1 (1 nM final), ULight-4E-BP1 (100 nM final, Perkinelmer, TRF0128-D), and ATP (2 mM final) in assay buffer (20 mM of HEPES pH 7.4, 1 mM of EGTA, 0.05% BSA, 0.005% Tween 20, and 1 mM TCEP). The compound of interest in DMSO was added to each well in 3-fold serial dilution by the dispenser (TECAN D300E) to make a 9.9 μL of reaction mixture. After 20 minutes preincubation at room temperature, 0.1 μL MgCl2 (10 mM final) was added to initiate the reaction. Following a 45 minute incubation at 37° C., the reaction was stopped by addition of 2 μL of quenching buffer consisting of Lance detection buffer (Perkinelmer CR97-100C), LANCE Ultra Europium-anti-P-4E-BP1 (Perkinelmer, TRF0216-D), EDTA, and incubated at room temperature for additional 60 minutes in dark. The reaction signal was measured by Envision multimode plate reader (PerkinElmer, 2102-0010). IC50 values were determined by fitting the data to the standard 4 parameters with Hill Slope using GraphPad Prism software.

pRB in OVCAR3 cells = experiment: pRB ICW Assay in OVCAR3 Cells; type: cell-based; settings: Homo sapiens, OVCAR-3, incubated with compound for 2 hours, read-out: OVCAR3 p-RB ICW IC50
Protocol: pRB ICW Assay in OVCAR3 Cells
OVCAR3 cells were maintained in RPMI (Corning, Catalog #: 10-040-CV) supplemented with 10% v/v FBS (Gibco, Catalog #: 26140-079), 1% v/v Penicillin Streptomycin (Gibco, Catalog #15140-122.) OVCAR3 cells grown at log phase were trypsinized, counted, and resuspended in fresh medium to reach a final density of 6.7e4 cells/mL and 75 μL of culture were dispensed into a 384-well plate (Falcon, cat #353962) using a Multidrop Combi dispenser (Thermo Scientific). The next day, compounds were dispensed as a 9-point, ½ log serial dilution using a Tecan digital dispenser (D300e), and cells were incubated with compound for 2 hours in a humidified incubator at 37° C. A reference compound at a final concentration of 10 μM was used as a control for maximum inhibition. Each compound was tested in duplicates for each experiment. At the end of the incubation, 25 μL of 16% paraformaldehyde (Electron Microscopy, cat #15710) was slowly added to each well and the plate was incubated at room temperature (RT) for 30 minutes to fix cells. Cells were then permeabilized by incubating with 50 μL/well of wash buffer (lx PBS with 0.1% Triton X-100) 5×5 minutes, followed by 1 hour blocking with 30 μL/well of Odyssey blocking buffer (Li—COR, cat #927-40000), at RT. Anti-phosphor RB antibody (Cell signaling 8516S) was diluted 1:1000 in Odyssey blocking buffer and 20 μL was added to all wells and incubated overnight in 4° C. with gently rocking. The next day, cells were washed 5×5 min with 50 μL/well of wash buffer, followed with 1 hour incubation with secondary antibody and DRAQ5 diluted in Odyssey blocking buffer (1:500 dilution for secondary antibody and 1:2000 dilution for DRAQ5), 5×5 min washes, and one last wash with water. Plates were dried in 37° C. oven for 5 minutes and scanned using Li—COR Odyssey CLx imaging system to acquire intensities at 700 and 800 nm channels.

T1 sequence (P11802 whole entry): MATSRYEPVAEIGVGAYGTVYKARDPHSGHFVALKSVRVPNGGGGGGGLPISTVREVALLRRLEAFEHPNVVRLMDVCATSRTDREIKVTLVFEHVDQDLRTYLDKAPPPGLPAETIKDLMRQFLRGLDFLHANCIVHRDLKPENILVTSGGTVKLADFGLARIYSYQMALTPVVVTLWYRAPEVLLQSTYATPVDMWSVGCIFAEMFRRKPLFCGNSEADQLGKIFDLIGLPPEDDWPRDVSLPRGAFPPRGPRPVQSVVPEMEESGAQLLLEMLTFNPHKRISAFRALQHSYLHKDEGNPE
T1 sequence (P24385 whole entry partner): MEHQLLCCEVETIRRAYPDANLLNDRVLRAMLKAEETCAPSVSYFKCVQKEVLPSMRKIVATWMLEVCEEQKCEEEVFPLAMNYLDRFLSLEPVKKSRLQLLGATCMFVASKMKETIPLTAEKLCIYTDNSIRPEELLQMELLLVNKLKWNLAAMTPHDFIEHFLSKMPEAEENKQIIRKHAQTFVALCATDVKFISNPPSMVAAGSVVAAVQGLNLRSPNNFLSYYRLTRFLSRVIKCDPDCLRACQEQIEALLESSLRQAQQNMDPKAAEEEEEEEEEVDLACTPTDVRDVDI

| SMILES | IC50 (CDK2/Cyclin E2) [nM] | IC50 (CDK4/Cyclin D1) [nM] | IC50 (pRB in OVCAR3 cells) [nM] |
| --- | --- | --- | --- |
| CCC12CC(O)CN1C(=O)c1cc(-c3nc(NC4CCN(S(=O)(=O)c5cnn(C)c5)CC4)ncc3C(F)(F)F)sc12 (stereo not drawn) [Example 36, 8a-Ethyl-7-hydroxy-2-(2-((1-((1-methyl-1H-pyrazol-4-yl)sulfonyl)piperidin-4-yl)amino)-5-(trifluoromethyl)pyrimidin-4-yl)-6,7,8,8a-tetrahydro-4H-thieno[2,3-a]pyrrolizin-4-one] | ≤ 100 | ≤ 100 | ≤ 100 |
| CCC12CCCN1C(=O)c1cc(-c3nc(NC4CCN(S(=O)(=O)c5cnn(C)c5)CC4)ncc3C(F)(F)F)sc12 (stereo not drawn) [Example 37, 8a-Ethyl-2-(2-((1-((1-methyl-1H-pyrazol-4-yl)sulfonyl)piperidin-4-yl)amino)-5-(trifluoromethyl)pyrimidin-4-yl)-6,7,8,8a-tetrahydro-4H-thieno[2,3-a]pyrrolizin-4-one] | ≤ 100 | ≤ 100 | ≤ 100 |
| CCC12CC(NC)CN1C(=O)c1cc(-c3nc(NC4CCN(S(C)(=O)=O)CC4)ncc3C(F)(F)F)sc12 (stereo not drawn) [Example 38, 8a-Ethyl-7-(methylamino)-2-(2-((1-(methylsulfonyl)piperidin-4-yl)amino)-5-(trifluoromethyl)pyrimidin-4-yl)-6,7,8,8a-tetrahydro-4H-thieno[2,3-a]pyrrolizin-4-one] | ≤ 100 | ≤ 100 | ≤ 100 |
| CCC12CC(N(C)C)CN1C(=O)c1cc(-c3nc(NC4CCN(S(C)(=O)=O)CC4)ncc3C(F)(F)F)sc12 (stereo not drawn) [Example 39, 7-(Dimethylamino)-8a-ethyl-2-(2-((1-(methylsulfonyl)piperidin-4-yl)amino)-5-(trifluoromethyl)pyrimidin-4-yl)-6,7,8,8a-tetrahydro-4H-thieno[2,3-a]pyrrolizin-4-one] | ≤ 100 | ≤ 100 | ≤ 100 |
| CCC12CC(N)CN1C(=O)c1cc(-c3nc(NC4CCN(S(C)(=O)=O)CC4)ncc3C(F)(F)F)sc12 (stereo not drawn) [Example 40, 7-Amino-8a-ethyl-2-(2-((1-(methylsulfonyl)piperidin-4-yl)amino)-5-(trifluoromethyl)pyrimidin-4-yl)-6,7,8,8a-tetrahydro-4H-thieno[2,3-a]pyrrolizin-4-one] | ≤ 100 | ≤ 100 | ≤ 100 |
| CCNC1CN2C(=O)c3cc(-c4nc(NC5CCN(S(C)(=O)=O)CC5)ncc4C(F)(F)F)sc3C2(CC)C1 (stereo not drawn) [Example 41, 8a-Ethyl-7-(ethylamino)-2-(2-((1-(methylsulfonyl)piperidin-4-yl)amino)-5-(trifluoromethyl)pyrimidin-4-yl)-6,7,8,8a-tetrahydro-4H-thieno[2,3-a]pyrrolizin-4-one] | ≤ 100 | ≤ 100 | ≤ 100 |
| [2H]C([2H])([2H])NC1CN2C(=O)c3cc(-c4nc(NC5CCN(S(C)(=O)=O)CC5)ncc4C(F)(F)F)sc3C2(CC)C1 (stereo not drawn) [Example 42, 8a-Ethyl-7-((methyl-d3)amino)-2-(2-((1-(methylsulfonyl)piperidin-4-yl)amino)-5-(trifluoromethyl)pyrimidin-4-yl)-6,7,8,8a-tetrahydro-4H-thieno[2,3-a]pyrrolizin-4-one] | ≤ 100 | ≤ 100 | ≤ 100 |
| CCC12CC(NC)CN1C(=O)c1cc(-c3nc(N[C@H]4CCN(S(C)(=O)=O)C[C@H]4C)ncc3C(F)(F)F)sc12 (stereo partly drawn) [Example 43, 8a-Ethyl-2-(2-(((3R,4S)-3-methyl-1-(methylsulfonyl)piperidin-4-yl)amino)-5-(trifluoromethyl)pyrimidin-4-yl)-7-(methylamino)-6,7,8,8a-tetrahydro-4H-thieno[2,3-a]pyrrolizin-4-one] | ≤ 100 | ≤ 100 | 100 to 500 |
| CCC12CC(NC)CN1C(=O)c1cc(-c3nc(N[C@H]4CCN(S(=O)(=O)c5cnn(C)c5)C[C@H]4C)ncc3C(F)(F)F)sc12 (stereo partly drawn) [Example 44, 8a-Ethyl-2-(2-(((3R,4S)-3-methyl-1-((1-methyl-1H-pyrazol-4-yl)sulfonyl)piperidin-4-yl)amino)-5-(trifluoromethyl)pyrimidin-4-yl)-7-(methylamino)-6,7,8,8a-tetrahydro-4H-thieno[2,3-a]pyrrolizin-4-one] | ≤ 100 | ≤ 100 | ≤ 100 |
| CCC12CC(N)CN1C(=O)c1cc(-c3nc(N[C@H]4CCN(S(C)(=O)=O)C[C@H]4C)ncc3C(F)(F)F)sc12 (stereo partly drawn) [Example 45, 7-Amino-8a-ethyl-2-(2-(((3R,4S)-3-methyl-1-(methylsulfonyl)piperidin-4-yl)amino)-5-(trifluoromethyl)pyrimidin-4-yl)-6,7,8,8a-tetrahydro-4H-thieno[2,3-a]pyrrolizin-4-one] | ≤ 100 | ≤ 100 | ≤ 100 |
| CCC12CC(N)CN1C(=O)c1cc(-c3nc(N[C@H]4CCN(S(=O)(=O)c5cnn(C)c5)C[C@H]4C)ncc3C(F)(F)F)sc12 (stereo partly drawn) [Example 46, 7-Amino-8a-ethyl-2-(2-(((3R,4S)-3-methyl-1-((1-methyl-1H-pyrazol-4-yl)sulfonyl)piperidin-4-yl)amino)-5-(trifluoromethyl)pyrimidin-4-yl)-6,7,8,8a-tetrahydro-4H-thieno[2,3-a]pyrrolizin-4-one] | ≤ 100 | ≤ 100 | ≤ 100 |
| CCC12CC(NC)CN1C(=O)c1cc(-c3nc(N[C@@H]4CCN(S(C)(=O)=O)C[C@H]4F)ncc3C(F)(F)F)sc12 (stereo partly drawn) [Example 47, 8a-Ethyl-2-(2-(((3R,4R)-3-fluoro-1-(methylsulfonyl)piperidin-4-yl)amino)-5-(trifluoromethyl)pyrimidin-4-yl)-7-(methylamino)-6,7,8,8a-tetrahydro-4H-thieno[2,3-a]pyrrolizin-4-one] | ≤ 100 | ≤ 100 | ≤ 100 |
| CCC12CC(NC)CN1C(=O)c1cc(-c3nc(N[C@H]4CCN(S(C)(=O)=O)C[C@H]4F)ncc3C(F)(F)F)sc12 (stereo partly drawn) [Example 48, 8a-Ethyl-2-(2-(((3R,4S)-3-fluoro-1-(methylsulfonyl)piperidin-4-yl)amino)-5-(trifluoromethyl)pyrimidin-4-yl)-7-(methylamino)-6,7,8,8a-tetrahydro-4H-thieno[2,3-a]pyrrolizin-4-one] | ≤ 100 | ≤ 100 | ≤ 100 |
